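How tested: cells in 96-well plates exposed to compound for 48 hours at five concentrations. Here, GI50 denotes the concentration required for 50% inhibition of growth. Definition used: TGI = concentration required for complete inhibition of growth.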
Experiments:
Experiment in all cases: NCI anticancer screen, dose series, 48 h
OVCAR-8 ovarian = system: OVCAR-8 ovarian
HCT-116 colon = system: HCT-116 colon
SN12C renal = system: SN12C renal
SF-268 CNS = system: SF-268 CNS
HT29 colon = system: HT29 colon
CCRF-CEM leukemia = system: CCRF-CEM leukemia
NCI-H522 lung = system: NCI-H522 lung
TK-10 renal = system: TK-10 renal
HCC-2998 colon = system: HCC-2998 colon
SF-539 CNS = system: SF-539 CNS

| Structure (SMILES) | TGI (OVCAR-8 ovarian) [µM] | TGI (HCT-116 colon) [µM] | TGI (SN12C renal) [µM] | TGI (SF-268 CNS) [µM] | TGI (HT29 colon) [µM] | TGI (CCRF-CEM leukemia) [µM] | TGI (NCI-H522 lung) [µM] | TGI (TK-10 renal) [µM] | TGI (HCC-2998 colon) [µM] | TGI (SF-539 CNS) [µM] | GI50 (OVCAR-8 ovarian) [µM] | GI50 (HCT-116 colon) [µM] | GI50 (SN12C renal) [µM] | GI50 (SF-268 CNS) [µM] | GI50 (SF-539 CNS) [µM] | GI50 (HT29 colon) [µM] | GI50 (CCRF-CEM leukemia) [µM] | GI50 (NCI-H522 lung) [µM] | GI50 (TK-10 renal) [µM] | GI50 (HCC-2998 colon) [µM] |
| --- | --- | --- | --- | --- | --- | --- | --- | --- | --- | --- | --- | --- | --- | --- | --- | --- | --- | --- | --- | --- |
| O=C(O)CN=c1c2ccccc2n(O)c2ccccc12 | > 100 | > 100 | > 100 | > 100 | > 100 | 53.6 | > 100 | > 100 | > 100 |  |  |  |  |  |  |  |  |  |  |  |
| BrC1=CN2C[n+]3cc(Br)c4ccccc4c3N=C2c2ccccc21 | 38.6 |  | 50.4 | 22.1 | 38.6 | 34.4 | 32.2 | 55 |  | 25.7 |  |  |  |  |  |  |  |  |  |  |
| COc1cc(Cc2ccc3c(c2C#N)N(C)c2ccccc2S3)cc(OC)c1OC | > 100 | > 100 | > 100 | > 100 | > 100 | > 100 | > 100 | > 100 |  | 42.7 |  |  |  |  |  |  |  |  |  |  |
| C/C([O-])=C(/c1nc(-c2ccc([N+](=O)[O-])o2)no1)[n+]1cc(C)ccc1C | > 76.6 | 18.5 | 29.3 | 62.3 | 22.7 | > 100 | 14.4 |  | 25.8 | 27.6 |  |  |  |  |  |  |  |  |  |  |
| Cc1ccc(S(=O)(=O)Nc2cc(Sc3ccccc3)c(O)c3ccccc23)cc1 | 5.88 | 11.5 | 5.68 | 8.07 | 53.1 | 16.6 | 27.6 | 31.7 | 35.9 | 9.51 | 2.28 | 3.13 | 2.31 | 2.57 | 3.19 | 20.6 | 2.4 | 13.1 | 17.5 | 18.4 |
| COc1cc2nc(N3CCC[C@@H](NC4=CC(=O)c5ccccc5C4=O)C3)nc(N)c2cc1OC |  |  | 3.44 | 3.81 | 3.82 | 4.56 | 4.31 | 3.85 | 3.3 |  |  |  | 1.73 | 1.92 |  | 1.88 | 1.96 | 1.98 | 2.1 | 1.85 |
| CCOC(=O)C(=O)Nc1cccc(C)c1C | > 100 | > 100 | > 100 | > 100 | > 100 | > 100 | > 100 | > 100 | > 100 | > 100 |  |  |  |  |  |  |  |  |  |  |
